Laboratory results as given in ChEMBL document CHEMBL5653631, “A Potent and Selective ULK1 Inhibitor Suppresses Autophagy and Sensitizes Cancer Cells to Nutrient Stress” (iScience, 2018).
Each block holds one compound with its values, some of them ahead of it.

Columns and labels:
[1] = molecular target: Serine/threonine-protein kinase 38-like (Homo sapiens) (UniProt Q9Y2H1); assay: Inhibition of human recombinant NDR2 at 500 nM in presence of ATP by radiometric assay relative to control
[2] = molecular target: Serine/threonine-protein kinase SIK1 (Homo sapiens) (UniProt P57059); assay: Inhibition of human recombinant SIK at 500 nM in presence of ATP by radiometric assay relative to control
Serine/threonine-protein kinase SIK1 (Homo sapiens), sequence (P57059 whole entry): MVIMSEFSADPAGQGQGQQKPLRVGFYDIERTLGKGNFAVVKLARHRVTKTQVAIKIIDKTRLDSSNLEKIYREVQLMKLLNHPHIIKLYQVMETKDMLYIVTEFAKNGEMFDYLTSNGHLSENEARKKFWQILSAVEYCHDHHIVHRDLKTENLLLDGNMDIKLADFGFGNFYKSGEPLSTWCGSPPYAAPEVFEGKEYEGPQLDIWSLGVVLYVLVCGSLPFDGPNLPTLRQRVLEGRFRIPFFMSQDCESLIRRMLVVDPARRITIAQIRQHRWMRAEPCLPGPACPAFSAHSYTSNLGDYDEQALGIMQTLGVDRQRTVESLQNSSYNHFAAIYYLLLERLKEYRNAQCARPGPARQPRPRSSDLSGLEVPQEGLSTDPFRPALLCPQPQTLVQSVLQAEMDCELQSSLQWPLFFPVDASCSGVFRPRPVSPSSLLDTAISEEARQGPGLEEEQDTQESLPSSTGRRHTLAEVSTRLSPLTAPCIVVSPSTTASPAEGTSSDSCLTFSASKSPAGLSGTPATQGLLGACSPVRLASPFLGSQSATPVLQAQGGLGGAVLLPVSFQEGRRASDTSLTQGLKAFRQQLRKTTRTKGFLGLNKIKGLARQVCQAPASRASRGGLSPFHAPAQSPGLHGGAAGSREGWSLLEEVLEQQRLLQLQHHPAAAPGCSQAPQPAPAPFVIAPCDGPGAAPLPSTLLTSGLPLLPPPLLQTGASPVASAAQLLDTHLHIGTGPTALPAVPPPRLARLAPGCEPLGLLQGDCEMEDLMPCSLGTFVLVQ

[3] = molecular target: Protein kinase C eta type (Homo sapiens) (UniProt P24723); assay: Inhibition of human recombinant PKCH at 15 nM in presence of ATP by radiometric assay relative to control
Protein kinase C eta type (Homo sapiens), sequence (P24723 whole entry): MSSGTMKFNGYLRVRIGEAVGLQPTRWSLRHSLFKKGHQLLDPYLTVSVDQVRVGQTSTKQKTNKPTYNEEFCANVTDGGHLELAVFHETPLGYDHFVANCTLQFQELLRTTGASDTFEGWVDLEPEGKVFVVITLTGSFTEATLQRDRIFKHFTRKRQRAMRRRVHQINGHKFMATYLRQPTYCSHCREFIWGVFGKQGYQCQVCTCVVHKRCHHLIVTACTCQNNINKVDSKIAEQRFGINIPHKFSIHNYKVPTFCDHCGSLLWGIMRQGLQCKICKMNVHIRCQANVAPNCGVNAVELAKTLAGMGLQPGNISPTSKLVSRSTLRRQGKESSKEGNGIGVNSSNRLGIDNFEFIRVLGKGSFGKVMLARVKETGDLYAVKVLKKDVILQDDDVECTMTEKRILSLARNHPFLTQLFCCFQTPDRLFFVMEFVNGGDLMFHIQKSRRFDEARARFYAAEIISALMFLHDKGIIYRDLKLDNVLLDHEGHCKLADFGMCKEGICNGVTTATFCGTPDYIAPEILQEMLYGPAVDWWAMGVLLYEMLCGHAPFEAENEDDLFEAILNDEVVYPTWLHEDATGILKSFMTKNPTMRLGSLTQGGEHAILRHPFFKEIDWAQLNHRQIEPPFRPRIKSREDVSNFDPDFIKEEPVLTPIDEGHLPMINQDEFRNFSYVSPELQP

[4] = molecular target: Tyrosine-protein kinase FRK (Homo sapiens) (UniProt P42685); assay: Inhibition of human recombinant FRK at 15 nM related to control ULK1
Tyrosine-protein kinase FRK (Homo sapiens), sequence (P42685 whole entry): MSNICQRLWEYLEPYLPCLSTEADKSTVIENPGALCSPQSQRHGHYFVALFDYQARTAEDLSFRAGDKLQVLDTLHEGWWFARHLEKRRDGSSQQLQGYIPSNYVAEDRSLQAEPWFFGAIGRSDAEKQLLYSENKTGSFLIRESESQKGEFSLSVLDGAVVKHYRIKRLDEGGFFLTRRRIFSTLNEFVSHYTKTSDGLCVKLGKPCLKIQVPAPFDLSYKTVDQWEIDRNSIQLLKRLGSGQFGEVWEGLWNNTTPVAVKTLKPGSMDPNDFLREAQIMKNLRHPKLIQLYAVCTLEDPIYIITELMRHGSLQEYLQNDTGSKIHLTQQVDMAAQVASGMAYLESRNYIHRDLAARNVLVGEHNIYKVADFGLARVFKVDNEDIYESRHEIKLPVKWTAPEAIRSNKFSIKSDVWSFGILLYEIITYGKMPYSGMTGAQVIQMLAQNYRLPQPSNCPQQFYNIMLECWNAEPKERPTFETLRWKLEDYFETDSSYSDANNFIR

[5] = molecular target: T1, Serine/threonine-protein kinase ULK2 (Homo sapiens) (UniProt Q8IYT8); assay: Inhibition of human recombinant ULK2 at 15 nM related to control ULK1
T1 sequence (whole entry): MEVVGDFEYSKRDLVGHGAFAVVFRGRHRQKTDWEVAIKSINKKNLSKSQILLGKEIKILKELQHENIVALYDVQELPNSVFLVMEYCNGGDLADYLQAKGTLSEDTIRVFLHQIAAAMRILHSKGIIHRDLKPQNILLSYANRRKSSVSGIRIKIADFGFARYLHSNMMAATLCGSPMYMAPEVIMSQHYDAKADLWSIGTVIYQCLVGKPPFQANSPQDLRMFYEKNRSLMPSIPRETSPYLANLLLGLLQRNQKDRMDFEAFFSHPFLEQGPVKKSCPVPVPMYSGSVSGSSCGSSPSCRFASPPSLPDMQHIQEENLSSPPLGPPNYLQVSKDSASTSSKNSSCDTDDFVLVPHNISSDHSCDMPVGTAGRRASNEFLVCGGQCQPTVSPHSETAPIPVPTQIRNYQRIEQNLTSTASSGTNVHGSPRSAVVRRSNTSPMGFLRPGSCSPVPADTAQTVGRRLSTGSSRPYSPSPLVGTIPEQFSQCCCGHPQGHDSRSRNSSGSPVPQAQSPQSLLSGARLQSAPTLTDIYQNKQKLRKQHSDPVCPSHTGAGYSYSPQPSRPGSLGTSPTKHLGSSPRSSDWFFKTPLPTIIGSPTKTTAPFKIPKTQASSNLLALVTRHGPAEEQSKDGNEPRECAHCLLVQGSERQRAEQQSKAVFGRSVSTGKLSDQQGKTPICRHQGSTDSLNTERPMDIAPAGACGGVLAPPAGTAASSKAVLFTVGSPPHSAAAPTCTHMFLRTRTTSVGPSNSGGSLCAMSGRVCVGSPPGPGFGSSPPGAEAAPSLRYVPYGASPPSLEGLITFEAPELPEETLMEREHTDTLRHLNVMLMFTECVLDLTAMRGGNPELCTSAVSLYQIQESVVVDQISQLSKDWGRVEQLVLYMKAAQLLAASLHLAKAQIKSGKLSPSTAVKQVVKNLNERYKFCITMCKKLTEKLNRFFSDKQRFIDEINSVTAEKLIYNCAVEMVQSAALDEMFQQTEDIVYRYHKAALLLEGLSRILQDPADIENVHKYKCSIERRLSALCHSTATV

[6] = molecular target: Receptor tyrosine-protein kinase erbB-4 (Homo sapiens) (UniProt Q15303); assay: Inhibition of human recombinant ErbB4 at 40 nM in presence of ATP by radiometric assay relative to control
Receptor tyrosine-protein kinase erbB-4 (Homo sapiens), sequence (Q15303 whole entry): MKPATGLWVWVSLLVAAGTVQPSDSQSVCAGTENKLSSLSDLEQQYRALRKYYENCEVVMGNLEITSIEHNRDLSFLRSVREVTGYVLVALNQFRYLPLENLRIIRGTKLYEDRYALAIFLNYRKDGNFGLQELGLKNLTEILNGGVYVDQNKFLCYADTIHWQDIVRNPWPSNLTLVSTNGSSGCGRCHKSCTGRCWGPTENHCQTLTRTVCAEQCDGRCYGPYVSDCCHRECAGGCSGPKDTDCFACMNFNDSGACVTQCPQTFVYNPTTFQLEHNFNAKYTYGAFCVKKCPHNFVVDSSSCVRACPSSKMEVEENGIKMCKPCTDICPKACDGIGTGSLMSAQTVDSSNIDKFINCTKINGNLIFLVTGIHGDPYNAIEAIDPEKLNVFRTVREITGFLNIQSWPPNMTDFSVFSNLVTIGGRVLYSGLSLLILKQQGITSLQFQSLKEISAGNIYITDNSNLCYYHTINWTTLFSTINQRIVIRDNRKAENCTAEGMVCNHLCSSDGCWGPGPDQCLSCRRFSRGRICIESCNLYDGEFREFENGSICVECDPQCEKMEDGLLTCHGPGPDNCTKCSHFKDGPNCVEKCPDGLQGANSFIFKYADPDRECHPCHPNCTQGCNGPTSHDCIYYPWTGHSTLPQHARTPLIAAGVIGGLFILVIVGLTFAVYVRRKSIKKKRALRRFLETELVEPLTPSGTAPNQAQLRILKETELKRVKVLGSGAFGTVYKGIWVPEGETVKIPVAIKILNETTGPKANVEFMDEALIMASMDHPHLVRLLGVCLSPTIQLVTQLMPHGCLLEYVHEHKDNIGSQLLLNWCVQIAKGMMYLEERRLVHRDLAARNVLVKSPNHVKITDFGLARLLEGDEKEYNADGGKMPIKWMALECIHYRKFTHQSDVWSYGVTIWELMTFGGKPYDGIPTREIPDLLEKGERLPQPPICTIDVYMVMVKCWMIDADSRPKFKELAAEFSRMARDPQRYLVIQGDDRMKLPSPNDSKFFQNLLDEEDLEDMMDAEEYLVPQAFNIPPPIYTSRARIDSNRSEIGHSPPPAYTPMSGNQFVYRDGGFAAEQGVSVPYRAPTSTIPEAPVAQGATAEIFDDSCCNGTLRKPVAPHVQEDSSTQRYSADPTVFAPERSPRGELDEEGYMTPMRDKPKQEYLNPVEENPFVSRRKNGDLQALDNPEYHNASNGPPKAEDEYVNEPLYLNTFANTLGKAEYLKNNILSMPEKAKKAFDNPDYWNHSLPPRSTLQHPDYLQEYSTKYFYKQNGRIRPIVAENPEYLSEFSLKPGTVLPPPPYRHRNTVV

[7] = molecular target: T2, Serine/threonine-protein kinase NLK (Homo sapiens) (UniProt Q9UBE8); assay: Inhibition of human recombinant NLK at 40 nM in presence of ATP by radiometric assay relative to control
T2 sequence (whole entry): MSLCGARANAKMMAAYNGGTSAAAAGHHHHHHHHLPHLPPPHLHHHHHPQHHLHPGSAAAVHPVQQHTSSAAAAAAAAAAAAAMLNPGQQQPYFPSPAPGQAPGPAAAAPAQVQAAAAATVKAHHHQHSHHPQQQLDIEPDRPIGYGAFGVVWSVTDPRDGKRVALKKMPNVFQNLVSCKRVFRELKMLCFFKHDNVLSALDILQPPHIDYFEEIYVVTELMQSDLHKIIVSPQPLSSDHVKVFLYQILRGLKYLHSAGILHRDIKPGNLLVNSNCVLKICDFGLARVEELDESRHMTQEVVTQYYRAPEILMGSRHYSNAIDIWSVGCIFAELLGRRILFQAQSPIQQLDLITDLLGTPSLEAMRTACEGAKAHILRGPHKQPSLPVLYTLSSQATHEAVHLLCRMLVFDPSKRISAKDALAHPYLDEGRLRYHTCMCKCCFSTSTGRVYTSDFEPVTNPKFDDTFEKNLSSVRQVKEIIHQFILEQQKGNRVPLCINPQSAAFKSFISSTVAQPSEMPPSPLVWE

[8] = molecular target: T3, Dual specificity tyrosine-phosphorylation-regulated kinase 3 (Homo sapiens) (UniProt O43781); assay: Inhibition of human recombinant DYRK3 at 40 nM related to control ULK1
T3 sequence (whole entry): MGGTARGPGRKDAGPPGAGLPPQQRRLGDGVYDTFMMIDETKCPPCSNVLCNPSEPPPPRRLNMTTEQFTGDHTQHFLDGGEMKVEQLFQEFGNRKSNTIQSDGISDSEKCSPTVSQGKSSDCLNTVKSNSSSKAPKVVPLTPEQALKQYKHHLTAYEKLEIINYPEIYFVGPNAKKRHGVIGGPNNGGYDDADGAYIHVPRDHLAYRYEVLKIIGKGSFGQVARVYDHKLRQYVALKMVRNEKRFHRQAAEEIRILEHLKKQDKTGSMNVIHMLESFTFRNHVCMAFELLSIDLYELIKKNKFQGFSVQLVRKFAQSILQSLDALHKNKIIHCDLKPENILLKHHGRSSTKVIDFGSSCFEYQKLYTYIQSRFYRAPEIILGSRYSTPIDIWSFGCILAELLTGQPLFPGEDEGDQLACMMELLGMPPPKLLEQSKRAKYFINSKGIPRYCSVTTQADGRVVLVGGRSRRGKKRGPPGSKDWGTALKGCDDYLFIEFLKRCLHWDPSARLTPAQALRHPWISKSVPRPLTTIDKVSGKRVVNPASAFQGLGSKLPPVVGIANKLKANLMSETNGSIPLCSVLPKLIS

Serine/threonine-protein kinase 38-like (Homo sapiens), sequence (Q9Y2H1 2-464 limits assumed): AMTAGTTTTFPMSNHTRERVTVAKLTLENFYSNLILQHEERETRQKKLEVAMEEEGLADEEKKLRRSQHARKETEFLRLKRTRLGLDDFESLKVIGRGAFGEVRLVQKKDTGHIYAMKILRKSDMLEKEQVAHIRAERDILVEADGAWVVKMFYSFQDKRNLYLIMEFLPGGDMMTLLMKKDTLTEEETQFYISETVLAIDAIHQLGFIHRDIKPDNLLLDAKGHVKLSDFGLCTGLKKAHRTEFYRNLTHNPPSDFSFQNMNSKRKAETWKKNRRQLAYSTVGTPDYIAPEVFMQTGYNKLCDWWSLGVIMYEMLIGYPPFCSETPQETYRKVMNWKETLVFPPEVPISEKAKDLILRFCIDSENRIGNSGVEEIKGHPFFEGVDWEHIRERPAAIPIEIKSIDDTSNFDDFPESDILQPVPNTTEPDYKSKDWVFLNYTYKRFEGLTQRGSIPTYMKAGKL

inhibition [1]: 15%
inhibition [2]: 20%
Compound: CNC(=O)c1ccccc1Oc1nc(Nc2cc(OC)c(OC)c(OC)c2)ncc1Br

inhibition [3]: 0%
fold change (FC) [4]: 0.15
fold change (FC) [5]: 0.83
Compound: CC(C)[C@H](NC(=O)c1cc(-c2cnn3cc(-c4ccc(OCCN5CCCCC5)cc4)cnc23)cs1)C(F)(F)F

inhibition [6]: 0%
inhibition [7]: 47%
fold change (FC) [8]: 0.41
Compound: O=C(N[C@@H](C1CC1)C(F)(F)F)c1cc(-c2cnn3cc(-c4ccc(F)cc4)cnc23)cs1
